# Like-named read-outs stand apart in the source and are kept apart here.
# What was measured:
# [1] = system: isogenic HeLa-derived cell line that expresses the βIII isotype of tubulin; conditions: cited from earlier work
# HeLa cells [2] = experiment: Inhibition of cellular proliferation, SRB assay in HeLa cells; format: cell-based; conditions: for IC50: HeLa cells, SRB assay; for fold increase in potency on epoxidation at C22-C23: epoxide compared with parent taccalonolide
# Method: The determination of IC50 values was performed on taccalonolide material after NMR analysis and subsequent lyophilization. Ethanol or DMSO was used as the vehicle for all cellular studies.
# The antiproliferative potencies of the taccalonolides were evaluated in HeLa cells using the SRB assay. Several new taccalonolides with low nanomoloar potency were identified, Table 1.
# HeLa cells [3] = experiment: Interphase microtubule bundling by indirect immunofluorescence; format: cell-based; conditions: 18 h; 200 nM AF, 200 nM AI, 70 nM AJ
# Method: FIGS. 2A-D—Effect of the taccalonolides on interphase cells. HeLa cells were treated for 18 h with vehicle (FIG. 2A), 200 nM taccalonolide AF (FIG. 2B), 200 nM taccalonolide AI (FIG. 2C), or 70 nM taccalonolide AJ (FIG. 2D). Interphase microtubule structures were visualized by indirect immunofluorescence using a β-tubulin antibody.
# (§1) Cellular microtubules in interphase and mitotic HeLa cells were visualized using indirect immunofluorescence techniques as previously described (Tinley et al., 2003). […] Representative images of interphase and mitotic cells were acquired using a Nikon Eclipse 80i fluorescence microscope and compiled using NIS Elements AR 3.0 software.
# HeLa cells [4] = experiment: Mitotic spindle structures by indirect immunofluorescence; format: cell-based; conditions: 18 h; 125 nM AF, 200 nM AI, 35 nM AJ
# From the text: FIGS. 4A-D—Effect of the taccalonolides on mitotic spindles. […] The microtubule structures in mitotic cells were visualized by indirect immunofluorescence using a β-tubulin antibody.
# as §1
# The effects of the taccalonolides on mitotic spindle structures were evaluated to test whether they caused mitotic spindle defects leading to cell cycle arrest. β-tubulin and DNA were visualized in HeLa cells by indirect immunofluorescence and DAPI staining, respectively. […] These mitotic cells contained multiple abnormal mitotic spindles, which is another common effect of microtubule stabilizing agents (FIGS. 4A-D).
# [5] = system: purified porcine brain tubulin; experiment: Tubulin polymerization followed turbidimetrically; format: biochemical; conditions: 10 μM; 2 mg/ml tubulin, 10% glycerol, 1 mM GTP, 37° C., OD340
# Method: FIG. 5—Effect of the taccalonolides on purified porcine brain tubulin. […] Tubulin polymerization was monitored by turbidity measurement at OD340.
# The ability of these new potent taccalonolides to interact directly with tubulin was assessed by incubating purified porcine brain tubulin at a concentration of 2 mg/ml in the presence of 10% glycerol and 1 mM GTP, which allows for a baseline level of tubulin polymerization that can be followed turbidimetrically (FIG. 5).
# [6] = system: SK-OV-3/MDR-1-6/6 versus SK-OV-3 cells; experiment: Relative resistance, P-glycoprotein expressing cell line pair; format: cell-based; conditions: P-glycoprotein expressing SK-OV-3 pair
# Method: (§2) FIG. 7—Effect of the taccalonolides in drug resistant and sensitive cells. IC50 values for inhibition of cellular proliferation for taccalonolides AF and AJ were determined in drug sensitive and drug resistant cell lines. The HeLa cell pair evaluated the effect of βIII tubulin expression on cell sensitivity and the ability of compounds to overcome drug resistance mediated by βIII tubulin expression. The SK-OV-3 cell line pair was used to evaluate the effects of the expression of P-glycoprotein (Pgp) on cell sensitivity and the ability of compounds to overcome Pgp-mediated drug resistence. The effects of the taccalonolides on the drug senstive prostate cancer cell line PC-3 are also presented. IC50 values were calculated from an average of 3-4 independent experiments, each performed in triplicate.
# (§3) The HeLa cervical cancer cell line, the SK-OV-3 ovarian cancer cell line and the PC-3 prostate cancer cell line were obtained from American Type Tissue Culture Collection (Manassas, Va.) and grown in Basal Media Eagle (BME) or RPMI 1640 medium (Invitrogen; Carlsbad, Calif.) supplemented with 10% fetal bovine serum (Hyclone; Logan, Utah) and 50 μg/ml gentamicin sulfate (Invitrogen). […]
# (§4) The antiproliferative and cytotoxic effects of the taccalonolides were evaluated using the SRB assay (Skehan et al., 1990, Boyd and Paull, 1995) as previously described (Tinley et al., 2003). […]
# WTβIII versus HeLa cells = experiment: Relative resistance, βIII-tubulin expressing cell line pair; format: cell-based
# Method: as §2, §3, §4
# [7] = system: human mammary epithelial cells; experiment: Cytotoxicity to normal cells; format: cell-based; conditions: concentrations 5 to 100-fold their IC50 values in HeLa
# [8] = cited from earlier work
# [9] = system: cell lines that overexpress Pgp; conditions: Pgp overexpressing cell lines; cited from earlier work
# [10] = system: cell lines that overexpress MRP7; conditions: MRP7 overexpressing cell lines; cited from earlier work
# [11] = system: doxorubicin- and paclitaxel-resistant Pgp-expressing tumor, Mam17/ADR; conditions: cited from earlier work
# [12] = system: MDA-MB-231 human breast tumors; experiment: Antitumor activity against MDA-MB-231 tumors in nude mice; format: in vivo
# Method: FIG. 6—Antitumor activity of taccalonolide AF. […] Tumor size was measured using calipers and volume calculated with the formula: Tumor volume (mm^3)=width (mm)×length (mm)×height (mm) and graphed as median tumor size for days 0-8.
# The ability of taccalonolide AF to inhibit the growth of the aggressive human breast tumor MDA-MB-231 in a murine host was determined Taccalonolide AF was administered at a dose of 2.5 mg/kg on days 1 and 3.
# [13] = parent taccalonolide, read-out: IC50 (nM), Taccalonolide
smiles,measurement,setting,value
C/C(=C\c1csc(C)n1)[C@@H]1C[C@@H]2O[C@]2(C)CCC[C@H](C)[C@H](O)[C@@H](C)C(=O)C(C)(C)[C@@H](O)CC(=O)O1 [epothilone B],sensitivity of βIII-tubulin-overexpressing cell line compared with parental HeLa cells,[1],less sensitive
CC(=O)O[C@@H]1[C@H]2[C@H]3C([C@H](OC(C)=O)[C@H](OC(C)=O)[C@]2(C)[C@@H]2[C@@H]1[C@]1(C)C(=C[C@@]2(C)OO)OC(=O)[C@@]1(C)O)[C@]1(C)[C@H](C[C@@H]2O[C@@H]2[C@@H]1OC(C)=O)C(=O)[C@@H]3O (stereo partly shown) [Taccalonolide AC],IC50,"HeLa cells [2]; Homo sapiens, parent taccalonolide, read-out: IC50 (nM), Taccalonolide",> 50000 nM
same,IC50,"HeLa cells [2]; Homo sapiens, read-out: IC50 value",> 50000 nM
CC(=O)O[C@H]1[C@H]2[C@H]([C@@H]3[C@@H](O)[C@@H]4[C@H]([C@H](C)[C@@H]5O[C@@]56OC(=O)[C@@](C)(O)[C@]46C)[C@@]3(C)[C@H]1OC(C)=O)[C@@H](O)C(=O)[C@H]1C[C@@H]3O[C@@H]3[C@H](OC(C)=O)[C@]21C [Taccalonolide AJ],fold increase in potency on epoxidation at C22-C23,HeLa cells [2]; HeLa IC50,743 fold
same,bundling of interphase microtubules,HeLa cells [3],formation of thick bundled microtubule tufts
same,effect on mitotic spindles,HeLa cells [4],mitotic arrest of cells with multiple abnormal mitotic spindles
same,rate and extent of tubulin polymerization,[5],dramatically increased
same,relative resistance (IC50 resistant line / IC50 parental line),[6],much lower than paclitaxel
same,relative resistance (IC50 resistant line / IC50 parental line),WTβIII versus HeLa cells,much lower than paclitaxel
same,cytotoxicity of normal cells,[7],No cytotoxicity
CC(=O)O[C@@H]1[C@H]2[C@@H]3[C@@H](O)C(=O)[C@H]4C[C@@H]5O[C@@H]5[C@H](OC(C)=O)[C@]4(C)[C@H]3C[C@H](OC(C)=O)[C@]2(C)[C@@H]2[C@@H]1[C@]1(C)C(=C[C@H]2C)OC(=O)[C@@]1(C)O [Taccalonolide E],in vivo antitumor activity,[8],have in vivo antitumor activity
same,efficacy in vitro,[9],effective
same,efficacy in vitro,[10],effective
same,activity in vivo,[11],highly active
CC(=O)O[C@@H]1[C@H](O)[C@@H]2C([C@H](OC(C)=O)[C@H](OC(C)=O)[C@]3(C)[C@@H]4[C@@H]([C@H](O)[C@@H]23)[C@]2(C)C(=C[C@H]4C)OC(=O)[C@@]2(C)O)[C@]2(C)[C@@H]1C[C@@H]1O[C@@H]1[C@@H]2OC(C)=O (stereo partly shown) [TA-NaBH4-12],IC50,HeLa cells [2]; [13],7500 nM
CC[C@]1(O)C[C@@H]2CN(CCc3c([nH]c4ccccc34)[C@@](C(=O)OC)(c3cc4c(cc3OC)N(C)[C@H]3[C@@](O)(C(=O)OC)[C@H](OC(C)=O)[C@]5(CC)C=CCN6CC[C@]43[C@@H]65)C2)C1 [vinblastine],sensitivity of βIII-tubulin-overexpressing cell line compared with parental HeLa cells,[1],less sensitive
CC(=O)O[C@@H]1[C@H]2[C@H]3[C@H]([C@H](OC(C)=O)[C@H](OC(C)=O)[C@]2(C)[C@H]2[C@H](C)[C@H]4O[C@]45OC(=O)[C@@](C)(O)[C@]5(C)[C@@H]12)[C@]1(C)[C@H](C[C@@H]2O[C@@H]2[C@@H]1OC(C)=O)C(=O)[C@@H]3O [Taccalonolide AF],fold increase in potency on epoxidation at C22-C23,HeLa cells [2]; HeLa IC50,234 fold
same,bundling of interphase microtubules,HeLa cells [3],formation of thick bundled microtubule tufts
same,effect on mitotic spindles,HeLa cells [4],mitotic arrest of cells with multiple abnormal mitotic spindles
same,rate and extent of tubulin polymerization,[5],dramatically increased
same,antitumor activity compared to paclitaxel positive control,"[12]; 2.5 mg/kg days 1 and 3 vs 10 mg/kg paclitaxel days 1, 3 and 5, first week of treatment",greater antitumor activity than the positive control
same,antitumor activity compared to vehicle treated controls,"[12]; 2.5 mg/kg on days 1 and 3, preliminary",sufficient to observe antitumor activity
same,relative resistance (IC50 resistant line / IC50 parental line),[6],much lower than paclitaxel
same,relative resistance (IC50 resistant line / IC50 parental line),WTβIII versus HeLa cells,much lower than paclitaxel
same,cytotoxicity of normal cells,[7],No cytotoxicity
"CC(=O)O[C@H]1[C@@H]2[C@H]([C@H](C)C=C3OC(=O)[C@@](C)(O)[C@@]32C)[C@]2(C)[C@@H]1C1=C(O)C(=O)[C@H]3C[C@@H]4O[C@@H]4[C@H](OC(C)=O)[C@]3(C)[C@H]1[C@H](OC(C)=O)[C@@H]2OC(C)=O [Taccalonolide H2, reference compound]",fold more potent than taccalonolide A,HeLa cells [2]; HeLa IC50,7.4 fold
CC(=O)O[C@H]1C2[C@@H]([C@@H](O)[C@@H](O)[C@H]3C[C@@H]4O[C@@H]4[C@H](OC(C)=O)[C@]23C)[C@@H]2[C@@H](O)[C@@H]3[C@H]([C@H](C)C=C4OC(=O)[C@@](C)(O)[C@@]43C)[C@@]2(C)[C@H]1OC(C)=O (stereo partly shown) [TA-NaBH4-10],IC50,HeLa cells [2]; [13],20000 nM
CC(=O)O[C@H]1[C@H]2[C@H]([C@@H]3[C@@H](O)[C@@H]4[C@H]([C@H](C)C=C5OC(=O)[C@@](C)(O)[C@@]54C)[C@@]3(C)[C@H]1OC(C)=O)[C@@H](O)C(=O)[C@H]1C[C@@H]3O[C@@H]3[C@H](OC(C)=O)[C@]21C [Taccalonolide B],efficacy in vitro,[9],effective
same,efficacy in vitro,[10],effective
CC(=O)O[C@H]1C(=O)[C@H]2C[C@@H]3O[C@@H]3[C@H](OC(C)=O)[C@]2(C)C2[C@@H]1[C@@H]1[C@@H](O)[C@@H]3[C@H]([C@H](C)C=C4OC(=O)[C@@](C)(O)[C@@]43C)[C@@]1(C)[C@@H](OC(C)=O)[C@H]2OC(C)=O (stereo partly shown) [TB-AC-16],IC50,HeLa cells [2]; [13],40000 nM
CC(=O)O[C@@]12CO[C@@H]1C[C@H](O)[C@@]1(C)C(=O)[C@H](O)C3=C(C)[C@@H](OC(=O)[C@H](O)[C@@H](NC(=O)OC(C)(C)C)c4ccccc4)C[C@@](O)([C@@H](OC(=O)c4ccccc4)[C@H]21)C3(C)C [docetaxel],sensitivity of βIII-tubulin-overexpressing cell line compared with parental HeLa cells,[1],less sensitive
CC(=O)O[C@H]1C[C@H]2[C@H]([C@@H]3[C@@H](O)[C@@H]4[C@H]([C@H](C)C=C5OC(=O)[C@@](C)(O)[C@@]54C)[C@]31C)[C@@H](O)C(=O)[C@H]1C[C@@H]3O[C@@H]3[C@H](OC(C)=O)[C@@]12C [Taccalonolide N],in vivo antitumor activity,[8],have in vivo antitumor activity
same,efficacy in vitro,[9],effective
same,efficacy in vitro,[10],effective

# — patent US9340572B2, “Taccalonolide microtubule stabilizers” (THE BOARD OF REGENTS OF THE UNIVERSITY OF TEXAS SYSTEM, priority 2011, dated 2016)
